Assay results published in US20240109917A1 (ACTELION PHARMACEUTICALS LTD, priority 2020, published 2024).

Columns and labels:
[1] = biological target: His6-TEV-PDGFRβ (557-1016) (Homo sapiens (Human), UniProt P09619); test: PDGFRβ HTRF Assay; assay type: biochemical; details: read-out: PDGFR HTRF IC50
Experimental: Instrumentation: a. Compound liquid handling: LabCyte Echo; b. Reagent liquid handling: Thermo Scientific Multidrop Combi; c. BMG PHERAStar multilabel plate reader.
Protein Reagent: His6-TEV-PDGFRβ Protein Prep prepared at Accelagen.
(§1) II. Methods and Procedures
Assay buffer stock solution, contains 50 mM Hepes, 10 mM MgCl2, 1 mM EGTA, and 0.01% Brij-35, 0.01% ovalbumin, 2 mM DTT at pH 7.5, in molecular biology grade water. Store at room temperature.
DTT, 2 M in molecular biology grade water, store at −20° C. in aliquots.
Ovalbumin, 10% or 100 mg/mL, prepare fresh on experimental day.
PDGFRβ, 116 μM (PDGFRb_08 Prep 02), produced at Accelagen. Store at −80° C. in aliquots.
TK-biotin peptide, […] in molecular biology grade water, store at −20° C. in aliquots.
ATP, 100 mM in molecular biology grade water, store at −20° C. in aliquots.
HTRF KinEASE-TK kit: Allow the contents of the Cisbio kit to warm up to room temperature before use. This kit contains HTRF detection buffer, TK-Antibody labeled with Eu^3+-cryptate, TK-substrate biotin and Streptavidin-XL665.
TK Substrate-Biotin, reconstitute 500 μg lyopholized with 574 μL molecular biology grade water to prepare a 500 μM stock; After use, aliquot the rest and store at −20° C.
TK Antibody-Cryptate, reconstitute lyophilized with 1 mL of molecular biology grade water (100× solution) then add 99 mL detection buffer to prepare a ready to use TK-antibody-cryptate solution; the concentration of the TK-antibody-cryptate reagent is not known. After use, aliquot the rest and store at −20° C.
Streptavidin-XL665, reconstitute 3 mg lyophilized with 3 mL molecular biology grade water to prepare a 1 mg/mL or 16.67 μM stock; MW=60 kDa; After use, aliquot the rest and store at −20° C.
Freshly Prepared Solutions:
Assay buffer. Dilute 5× Kinase buffer 5-fold with molecular biology grade water and add DTT to 2 mM and ovalbumin to 0.1 mg/mL (or 0.01%).
2× protein solution. Make a working solution of […] PDGFRβ in assay buffer. Keep on ice until use to maintain enzyme stability.
2× substrate solution. Make a working solution of 1.6 mM ATP and 1 μM TK-substrate biotin peptide in assay buffer.
3× quench/detection solution. Make a working solution of 0.1875 μM SA-XL665 and the TK-antibody cryptate diluted by 12 of total quench/detection volume in assay buffer.
Keep final streptavidin/biotin ratio at 1 to 8.
Example of 3× quench/detection solution preparation: 8 mL total volume.
TK antibody-cryptate in detection buffer—4000 μL
The kinase reaction is stopped by the addition of the detection reagents which contain EDTA (detection step).
Assay in white ProxiPlate 384-well
Step 1. Dispensing inhibitors/DMSO and low control: Using the ECHO 555 acoustic dispenser, spot desired compound serial dilutions in DMSO, NEAT DMSO to represent the uninhibited enzyme control, and 10 μM final [imatinib] to the represent the 100% inhibited enzyme control
Step 2. PDGFRβ E+I pre-incubation: Add 2 μL 2× protein solution to columns 1-24 using the Multidrop Combi. Centrifuge at 1000 rpm for 1 min. Incubate 30 min at RT
Step 2. Enzymatic reaction: Add 2 μL substrate solution to columns 1-24 to initiate the reaction using the Multidrop Combi; cover/seal the assay plate to reduce evaporation. Centrifuge at 1000 rpm for 1 min. Incubate at room temperature for 3 hours.
Step 3. Quench/Detection: Add 2 μl 3× quench/detection solution to columns 1-24 using the Multidrop Combi; cover/seal the plate. Centrifuge 1 min 1000 rpm. Incubate at RT for 60 min. Read the plate in PHERAstar (or similar instrument) on HTRF setting at excitation 337 nm—dual emission—665/620 nm ratio.
(§2) III. Calculations and Formulas
HTRF ratio values calculated by the instrument (Ratio is acceptor counts/donor counts*10,000) is exported from the plate reader and used in data analysis. […] Assay statistics can include Robust Z′ and Signal to Background.
% Inhibition Calculation: Percent inhibition will be calculated for sample wells based on the equation: […]

[2] = biological target: Tb-labeled inactive PDGFRβ (Homo sapiens (Human), UniProt P09619); test: PDGFRβ LanthaScreen Assay; assay type: binding; details: read-out: PDGFR Lantha IC50
Sequence of Tb-labeled inactive PDGFRβ (P09619 33-1106): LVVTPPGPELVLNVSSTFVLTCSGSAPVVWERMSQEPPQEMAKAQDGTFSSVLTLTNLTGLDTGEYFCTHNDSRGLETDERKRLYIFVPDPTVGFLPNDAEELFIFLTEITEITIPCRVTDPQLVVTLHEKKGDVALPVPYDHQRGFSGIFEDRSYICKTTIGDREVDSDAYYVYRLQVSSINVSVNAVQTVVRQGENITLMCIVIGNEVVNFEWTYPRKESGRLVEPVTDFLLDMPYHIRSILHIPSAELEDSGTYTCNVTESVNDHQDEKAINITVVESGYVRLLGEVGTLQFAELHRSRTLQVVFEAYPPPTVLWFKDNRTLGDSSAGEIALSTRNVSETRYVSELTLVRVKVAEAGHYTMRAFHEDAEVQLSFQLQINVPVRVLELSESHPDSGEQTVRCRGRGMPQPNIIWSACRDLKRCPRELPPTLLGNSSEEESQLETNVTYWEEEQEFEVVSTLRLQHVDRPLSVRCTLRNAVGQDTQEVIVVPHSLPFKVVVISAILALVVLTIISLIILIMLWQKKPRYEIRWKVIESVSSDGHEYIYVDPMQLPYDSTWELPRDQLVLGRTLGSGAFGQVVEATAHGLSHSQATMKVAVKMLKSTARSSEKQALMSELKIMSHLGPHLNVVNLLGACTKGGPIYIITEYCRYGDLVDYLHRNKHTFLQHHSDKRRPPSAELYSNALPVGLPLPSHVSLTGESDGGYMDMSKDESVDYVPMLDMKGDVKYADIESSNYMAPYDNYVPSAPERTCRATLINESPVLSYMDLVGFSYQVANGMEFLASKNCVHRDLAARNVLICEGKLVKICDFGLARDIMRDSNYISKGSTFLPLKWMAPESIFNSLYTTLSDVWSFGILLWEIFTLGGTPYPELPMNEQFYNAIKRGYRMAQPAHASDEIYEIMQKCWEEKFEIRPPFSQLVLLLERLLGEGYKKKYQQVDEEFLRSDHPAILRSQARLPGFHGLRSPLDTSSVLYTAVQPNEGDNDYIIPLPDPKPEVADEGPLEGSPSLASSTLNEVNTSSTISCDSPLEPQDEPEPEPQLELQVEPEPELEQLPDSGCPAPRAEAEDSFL

VEGFR2, unphosphorylated = VEGFR2, unphosphorylated (Homo sapiens (Human), UniProt P35968); test: VEGFR ADP GLO Assay; assay type: biochemical
Sequence of VEGFR2, unphosphorylated (P35968 20-1356): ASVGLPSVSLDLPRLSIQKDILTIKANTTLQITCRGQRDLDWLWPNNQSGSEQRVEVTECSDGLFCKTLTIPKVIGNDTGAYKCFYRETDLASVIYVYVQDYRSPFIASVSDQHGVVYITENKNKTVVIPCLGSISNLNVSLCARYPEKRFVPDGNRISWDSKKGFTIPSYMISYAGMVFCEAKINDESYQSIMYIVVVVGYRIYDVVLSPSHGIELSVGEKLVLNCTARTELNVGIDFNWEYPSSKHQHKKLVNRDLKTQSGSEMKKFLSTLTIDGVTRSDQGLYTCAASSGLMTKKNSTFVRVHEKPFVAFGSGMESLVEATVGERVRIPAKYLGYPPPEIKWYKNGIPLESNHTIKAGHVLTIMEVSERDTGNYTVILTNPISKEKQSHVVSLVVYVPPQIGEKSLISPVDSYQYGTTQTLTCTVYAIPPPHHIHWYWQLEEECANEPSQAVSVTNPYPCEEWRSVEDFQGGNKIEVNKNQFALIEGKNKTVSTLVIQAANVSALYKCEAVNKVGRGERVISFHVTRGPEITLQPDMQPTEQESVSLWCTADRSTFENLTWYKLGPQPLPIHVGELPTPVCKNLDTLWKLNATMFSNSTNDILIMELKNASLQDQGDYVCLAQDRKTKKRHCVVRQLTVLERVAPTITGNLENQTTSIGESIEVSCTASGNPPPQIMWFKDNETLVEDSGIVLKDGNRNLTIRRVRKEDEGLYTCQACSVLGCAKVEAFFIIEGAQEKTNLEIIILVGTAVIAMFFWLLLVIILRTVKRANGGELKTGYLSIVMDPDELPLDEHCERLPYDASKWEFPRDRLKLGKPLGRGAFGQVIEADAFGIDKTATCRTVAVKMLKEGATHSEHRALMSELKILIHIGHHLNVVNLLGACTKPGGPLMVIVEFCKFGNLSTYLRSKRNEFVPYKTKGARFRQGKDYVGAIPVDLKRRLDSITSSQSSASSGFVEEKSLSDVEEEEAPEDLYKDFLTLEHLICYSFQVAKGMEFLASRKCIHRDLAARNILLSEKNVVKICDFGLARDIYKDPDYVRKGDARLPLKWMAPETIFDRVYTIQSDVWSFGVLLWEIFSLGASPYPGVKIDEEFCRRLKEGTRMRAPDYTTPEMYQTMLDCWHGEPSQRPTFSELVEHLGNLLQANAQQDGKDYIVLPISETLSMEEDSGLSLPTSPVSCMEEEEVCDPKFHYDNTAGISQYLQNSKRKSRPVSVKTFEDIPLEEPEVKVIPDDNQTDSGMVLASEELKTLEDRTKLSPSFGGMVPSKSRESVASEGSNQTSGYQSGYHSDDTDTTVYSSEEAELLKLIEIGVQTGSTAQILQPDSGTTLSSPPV
Experimental: as §1
Assay buffer stock contains 50 mM HEPES pH7.5, 10 mM MgCl2, 0.01% Brij-35, and 1 mM EGTA.
Unphosphorylated VEGFR2. […] Store at −80° C. in aliquots.
Sonicate 10 mg/ml Srctide solution for 10 minutes and then vacuum filter.
Freshly Prepared Solutions
2× kinase solution. Make a working solution of 10 nM unphosphorylated VEGFR2 in Assay buffer. Vacuum filter 2× kinase solution prior to running assay. Keep on ice until use.
2× substrate/ATP solution. Make a working solution of 2 mg/mL srctide and 2.4 mM ATP in Assay buffer. Keep on ice until use.
Step 1. Dispensing inhibitors/controls: Using Echo, dispense 10 nL/well compound serial dilutions in DMSO to columns 1-22 (in 384-well plates) or columns 1-44 (in 1536-well plates). Dilution series=11 pt, 3-fold dilutions. The top compound concentration in the source plate is 4 mM. The top compound concentration in the assay plate is 10 uM. Using Echo, dispense 10 nl/well DMSO to column 23 (in 384-well plates) or columns 45-47 (in 1536-well plates). […] These wells will serve as positive control wells.
Step 2. Pre-incubation of inhibitors with kinase: Add 2 μL/well 2× kinase solution. Centrifuge at 1000 rpm for 1 min. Incubate at room temperature for 30 min.
Step 3. Kinase cascade reaction: Add 2 μL/well 2× substrate/ATP solution to initiate kinase reactions. Centrifuge at 1000 rpm for 1 min. Incubate at room temperature for 180 min.
Final concentrations of components in the assay:
Step 4. Quench: Add 2 uL/well ADP Glo Reagent+0.05% CHAPS. Centrifuge at 1000 rpm for 1 min; Incubate at room temperature for one hour.
Step 5. Detection: Add 2 uL/well Kinase Detection Reagent+0.05% CHAPS. Centrifuge at 1000 rpm for 1 min; Incubate at room temperature for 1 hour; Read Luminescence on a plate reader.
as §2
IC50 values are determined from a 4-parameter fit, using the following equation: Y=Bottom+(Top−Bottom)/(1+10^(Log IC50-X)*Hill slope) where X=log10 of the compound concentration; top can be defined by PC; bottom defined by NC.

Sequence of His6-TEV-PDGFRβ (557-1016) (P09619 557-1016): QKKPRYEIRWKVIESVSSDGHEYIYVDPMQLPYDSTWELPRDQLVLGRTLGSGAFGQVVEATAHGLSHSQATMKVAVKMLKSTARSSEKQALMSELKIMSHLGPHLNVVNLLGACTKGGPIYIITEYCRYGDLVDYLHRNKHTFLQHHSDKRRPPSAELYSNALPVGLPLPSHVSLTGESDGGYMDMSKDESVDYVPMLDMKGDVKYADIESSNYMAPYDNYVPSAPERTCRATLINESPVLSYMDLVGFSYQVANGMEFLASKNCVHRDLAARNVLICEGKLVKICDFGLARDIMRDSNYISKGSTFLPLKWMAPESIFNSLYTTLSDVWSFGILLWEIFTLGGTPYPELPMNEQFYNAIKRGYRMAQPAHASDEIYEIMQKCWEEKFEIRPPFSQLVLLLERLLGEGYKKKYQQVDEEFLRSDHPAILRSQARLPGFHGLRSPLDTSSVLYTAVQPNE

Structure (SMILES): Cc1ncc(C(=O)NCCN2CCCC2(C)C)cc1NC(=O)c1cnn2cc(-c3ccc(=O)[nH]c3)sc12 [Example 137, N-(5-((2-(2,2-dimethylpyrrolidin-1-yl)ethyl)carbamoyl)-2-methylpyridin-3-yl)-2-(6-oxo-1,6-dihydropyridin-3-yl)pyrazolo[5,1-b]thiazole-7-carboxamide]
- IC50 [1]: 2.2 nM
- IC50 [2]: 24.4 nM
- IC50 (VEGFR2, unphosphorylated): > 2500 nM

Structure (SMILES): Cc1ncc(C(=O)NCCN2CCCC2(C)C)cc1NC(=O)c1cnn2cc(-c3ccc(C(=O)O)cc3)sc12 [Example 133, 4-(7-((5-((2-(2,2-dimethylpyrrolidin-1-yl)ethyl)carbamoyl)-2-methylpyridin-3-yl)carbamoyl)pyrazolo[5,1-b]thiazol-2-yl)benzoic acid]
- IC50 [1]: 1.5 nM
- IC50 [2]: 6.3 nM
- IC50 (VEGFR2, unphosphorylated): > 7500 nM

Structure (SMILES): Cc1ncc(C(=O)NCCN2CCCC2(C)C)cc1NC(=O)c1cnn2cc(-c3ccc(=O)n(C)c3)sc12 [Example 138, N-(5-((2-(2,2-dimethylpyrrolidin-1-yl)ethyl)carbamoyl)-2-methylpyridin-3-yl)-2-(1-methyl-6-oxo-1,6-dihydropyridin-3-yl)pyrazolo[5,1-b]thiazole-7-carboxamide]
- IC50 [1]: 3.7 nM
- IC50 [2]: 39.6 nM
- IC50 (VEGFR2, unphosphorylated): > 7500 nM

Structure (SMILES): Cc1ncc(C(=O)NCCN2CCCC2(C)C)cc1NC(=O)c1cnn2cc(-c3cccc(C(=O)O)c3)sc12 [Example 134, 3-(7-((5-((2-(2,2-dimethylpyrrolidin-1-yl)ethyl)carbamoyl)-2-methylpyridin-3-yl)carbamoyl)pyrazolo[5,1-b]thiazol-2-yl)benzoic acid]
- IC50 [1]: 2.9 nM
- IC50 [2]: 13.9 nM
- IC50 (VEGFR2, unphosphorylated): > 7500 nM

Structure (SMILES): Cc1ncc(C(=O)NCCN2CCCC2(C)C)cc1NC(=O)c1cnn2cc(-c3ccc(N)nc3)sc12 [Example 130, 2-(6-aminopyridin-3-yl)-N-(5-((2-(2,2-dimethylpyrrolidin-1-yl)ethyl)carbamoyl)-2-methylpyridin-3-yl)pyrazolo[5,1-b]thiazole-7-carboxamide]
- IC50 [1]: 0.5 nM
- IC50 [2]: 4.3 nM
- IC50 (VEGFR2, unphosphorylated): > 7500 nM

Structure (SMILES): Cc1ncc(C(=O)NCCNC2CCC2)cc1NC(=O)c1cnn2cc(-c3cnn4c3CCC4)sc12 [Example 491, N-(5-((2-(cyclobutylamino)ethyl)carbamoyl)-2-methylpyridin-3-yl)-2-(5,6-dihydro-4H-pyrrolo[1,2-b]pyrazol-3-yl)pyrazolo[5,1-b]thiazole-7-carboxamide]
- IC50 [1]: 0.3 nM
- IC50 [2]: 4.9 nM
- IC50 (VEGFR2, unphosphorylated): > 7500 nM

Structure (SMILES): Cc1ncc(C(=O)NCCN2CC(C)(C)C2)cc1NC(=O)c1cnn2cc(-c3cnn4c3COCC4)sc12 [Example 489, 2-(6,7-dihydro-4H-pyrazolo[5,1-c][1,4]oxazin-3-yl)-N-(5-((2-(3,3-dimethylazetidin-1-yl)ethyl)carbamoyl)-2-methylpyridin-3-yl)pyrazolo[5,1-b]thiazole-7-carboxamide]
- IC50 [1]: 0.5 nM
- IC50 [2]: 5.5 nM
- IC50 (VEGFR2, unphosphorylated): > 7500 nM

Structure (SMILES): Cc1ccc(-c2cn3ncc(C(=O)Nc4cc(C(=O)NCCN5CCCC5(C)C)cnc4C)c3s2)cn1 [Example 136, N-(5-((2-(2,2-dimethylpyrrolidin-1-yl)ethyl)carbamoyl)-2-methylpyridin-3-yl)-2-(6-methylpyridin-3-yl)pyrazolo[5,1-b]thiazole-7-carboxamide]
- IC50 [1]: 1.4 nM
- IC50 [2]: 1 nM
- IC50 (VEGFR2, unphosphorylated): > 7500 nM

Structure (SMILES): Cc1ncc(C(=O)NCCN2[C@H](C)CCC[C@@H]2C)cc1NC(=O)c1cnn2cc(-c3cnn(C)c3)sc12 [Example 164]
- IC50 [1]: 1.5 nM
- IC50 [2]: 6.2 nM
- IC50 (VEGFR2, unphosphorylated): > 7500 nM

Structure (SMILES): Cc1ncc(C(=O)NCCN2CCCC2(C)C)cc1NC(=O)c1cnn2cc(-c3cccnc3)sc12 [Example 135, N-(5-((2-(2,2-dimethylpyrrolidin-1-yl)ethyl)carbamoyl)-2-methylpyridin-3-yl)-2-(pyridin-3-yl)pyrazolo[5,1-b]thiazole-7-carboxamide]
- IC50 [1]: 1.3 nM
- IC50 [2]: 10.6 nM
- IC50 (VEGFR2, unphosphorylated): > 7500 nM

Structure (SMILES): Cc1ncc(C(=O)NCCN2CCCC2(C)C)cc1NC(=O)c1cnn2cc(-c3ccnc(N(C)C)c3)sc12 [Example 490, 2-(2-(dimethylamino)pyridin-4-yl)-N-(5-((2-(2,2-dimethylpyrrolidin-1-yl)ethyl)carbamoyl)-2-methylpyridin-3-yl)pyrazolo[5,1-b]thiazole-7-carboxamide]
- IC50 [1]: 0.3 nM
- IC50 [2]: 2.3 nM
- IC50 (VEGFR2, unphosphorylated): > 7500 nM

Structure (SMILES): Cc1ncc(NC(=O)CCC2CCCN2C)cc1NC(=O)c1cnn2cc(-c3cnn(C)c3)sc12 (stereo not drawn) [Example 492, 2-(1-methyl-1H-pyrazol-4-yl)-N-(2-methyl-5-(3-(1-methylpyrrolidin-2-yl)propanamido)pyridin-3-yl)pyrazolo[5,1-b]thiazole-7-carboxamide]
- IC50 [1]: 0.7 nM
- IC50 [2]: 15 nM
- IC50 (VEGFR2, unphosphorylated): > 7500 nM

Structure (SMILES): Cc1ncc(C(=O)NCCN2CCCC2(C)C)cc1NC(=O)c1cnn2cc(-c3cnn(C)n3)sc12 [Example 131, N-(5-((2-(2,2-dimethylpyrrolidin-1-yl)ethyl)carbamoyl)-2-methylpyridin-3-yl)-2-(2-methyl-2H-1,2,3-triazol-4-yl)pyrazolo[5,1-b]thiazole-7-carboxamide]
- IC50 [1]: 1.7 nM
- IC50 [2]: 9.1 nM
- IC50 (VEGFR2, unphosphorylated): > 7500 nM
